Results: patent US9051240B2, “Substituted 2-[2-(phenyl) ethylamino] alkaneamide derivatives and their use as sodium and/or calcium channel modulators” (Newron Pharmaceuticals S.P.A., priority 2007, dated 2015)
Where a name gives a salt, the structure may show the parent alone. Read-outs that look alike come from different tables or passages of the source.

Key:
L-type calcium channels = test: Calcium channel influx assay (fluorescence, AtT20 cell line); format: cell-based, mouse; conditions: AtT20 cells, 100 mM KCl depolarization; read-out: Ca++ influx IC50
Procedure: AtT20/D16v-F2 mouse pituitary tumour cell line preferentially expresses L-type calcium channels.
AtT20 cells were grown in DMEM with 10% of FBS, 4 mM glutamine. The cells were seeded at 200,000 cells/well on 96 poly-L-lysine-coated plates and further incubated for 18-24 h, before use.
The Ca^++ Kit Assay (Molecular Devices), which is based on a fluorescent calcium indicator to detect the calcium influx determined by depolarizing conditions, was used for the assay.
Cells were incubated with the calcium dye loading for 30 min at 37° C. Then, ω-conotoxin alone (1 μM) or in presence of nifedipine (as reference standard) or test compound were added for further 15 min.
The fluorescence (excitation: 485-emission: 535 nm wavelength) was measured before and after (30-40 sec) the automated injection of 100 mM KCl depolarizing solution using a Victor plate reader (Perkin Elmer).
(§1) The inhibition curves were calculated from 5 concentrations, each in triplicate, and the IC50 determined using linear regression analysis.

TTXs sodium channels = test: TTXs-sodium channel influx assay (fluorescence, ND7/23 cell line); format: cell-based, rat; conditions: ND7/23 cells, veratridine 100 μM; read-out: Na+ influx IC50
Procedure: ND7/23 rat dorsal root ganglion-derived cell line endogenously expresses a mixed population of TTXs sodium channels. These cells lack of TTXr sodium channels as shown by the absence of their respective transcripts.
ND7/23 cells were grown in DMEM supplemented with 10% FBS and 1 mM sodium piruvate. The cells were seeded at 50,000 cells/well on 96 poly-L-lysine-coated plates and further incubated for 18-24 h before use.
The Membrane Potential Kit Assay (Molecular Devices), based on a negatively charged fluorescent dye able to monitor changes in membrane potential caused by the sodium influx due to the channel opening, was used for the assay.
Cells were incubated with the dye loading for 30 minutes at 25° C. Then, 100 nM of the toxin Anemonia sulcata (used as enhancer of the channel opener response) alone or in the presence of TTX (as reference standard) or test compound were added for further 15 minutes.
The fluorescence (excitation:530 nm, emission: 565 nm wavelength) was measured before and after (40-45 s) the automated injection of the sodium channel opener veratridine (100 μM) using a Victor plate reader (Perkin Elmer).
as §1

[1] = test system: Na+ currents in ND7/23 cells (TTX-s); test: Patch clamp evaluation of Na+ currents blockade in ND7/23 cell line; format: cell-based, rat; conditions: for Ki: calculated from Kr and Kdep, read-out: Ki (apparent affinity for the inactivated state)
Procedure: ND7/23 (ECACC No 92090903 from SIGMA), is a hybrid cell line derived from a neonatal rat DRG fused with the mouse neuroblastoma N18Tg2 (Wood et al., Proc. Biol. Sci., 1990 September, 241(1302), 187-194).
The molecular identity of the channels responsible for the TTX-s conductance is unknown but it is presumed that TTX-s conductance arises from the activity of a mixed population of sodium channels.
Cells are routinously maintained in DMEM with 10% of FBS, 4 mM glutamine, 1 mM sodium piruvate. The day before the patch clamp experiment cells are detached and seeded at 100,000 cells/polylysine-coated 35 mm Petri dish.
Experiments on ND7/23 cells were carried out using standard whole cell patch clamp methods (Hamill et al., Pfugers Arch., 1981 August, 391(12), 85-100), as described in previous section.
To test the effect of compounds on sodium currents in ND7/23 cells, holding membrane potential was set at −90 mV, then a two step protocol was used to determine the voltage dependence of the block. Sodium currents were activated by a 30 ms step pulse to 0 mV (test pulse) from a 2000 ms preconditioning potential of −110 mV (resting condition) and a potential of ˜−70 mV (half maximal steady-state condition).
Tonic block of resting and depolarized currents at a given drug concentration was calculated as the difference between the peak Na^+ current in the control external bath solution and peak currents with the test substance divided by control peak.
Drug concentration-inhibition curves were obtained by plotting tonic blocks in the resting and depolarized condition, versus drug concentrations. Dose-response curves were fitted to the tonic block data, according to the logistic equation: y=A2+(A1−A2)/[1+(x/IC50)p]. A1 and A2 are fixed values of 0 and 1 corresponding to 0 and 100% current inhibition, x is the drug concentration, IC50 is the drug concentration resulting in 50% current inhibition and p is the corresponding slope factor.
The apparent affinity of drug for the inactivated state (Ki) was calculated according to the equation 1/Kdep=h/Kr+(1−h)/Ki where Kr is the affinity of drug for the resting/closed state; Kdep is the IC50 in the depolarized condition, h and (1−h) are the fractions of channels present at the rest. and dep. potentials, respectively.
Control bath solution contained (mM): NaCl 80, Choline HCl 40, CaCl2 1.3, MgCl2 2, KCl 2, CdCl2 0.4, NiCl2 0.3, TEACl 20, Hepes 10, Glucose 10.
Internal pipette solution consisted of (mM): CsF 65, CsCl 65, NaCl 10, CaCl2 1.3, MgCl2 2, Hepes 10, EGTA 10, MgATP 1.
Compounds were dissolved as stock solutions (20 mM) in DMSO. They were diluted to the final concentrations in the external solution.

mice = test: Maximal electroshock test (MES) in mice; format: in vivo; conditions: for ED50: Mus musculus, po, read-out: ED50 (mg/kg p.o.)
Excerpt: The maximal electroshock test (MES) is used commonly in the screening of anti-epileptic drugs in rodent models.
Animals and Apparatus: Male CD1 mice weighing 25 g were used. The procedure described by White et al. (White H. S., Woodhead J. H., Franklin M. R., Swinyard E. A., and Wolf H. H. Antiepileptic Drugs (1995) 4th ed: 99-110, Raven Press, Ltd., New York) was followed. An Ugo Basile electroconvulsive generator (Model ECT UNIT 7801) was used to deliver an electrical stimulus sufficient to produce a hindlimb tonic extensor response in at least 97% of control animals. The stimulus was delivered intra-aurally through clip electrodes in mice (0.7 s of a 40 mA shock, with a pulse train of 80 Hz having a pulse duration of 0.4 ms). The acute effect of compounds administered intraperitoneally (i.p.), subcutaneously (s.c.), intravenously (i.v.) or orally (p.o.) 5-120 minutes before MES induction were examined and compared with a vehicle control group. Ten mice were studied per group. Complete suppression of the hindlimb tonic extensor component of seizures was taken as evidence of anticonvulsant activity.
The compounds of the invention were administered p.o. or i.v., at the doses of 0.1-100 mg/kg.

MAO-B = MAO-B (Rattus norvegicus (Rat), UniProt P19643); test: In vitro MAO-B enzyme activity assay (radioenzymatic, rat brain mitochondria); format: biochemical; conditions: 14C-PEA 0.5 μM
Procedure: Male Wistar rats (Harlan, Italy weighing 175-200 g) were sacrificed under light anaesthesia and brains were rapidly removed and homogenized in 8 volumes of ice-cold 0.32 M sucrose buffer containing 0.1 M EDTA, pH 7.4. The crude homogenate was centrifuged at 2220 rpm for 10 minutes and the supernatant recovered. The pellet was homogenized and centrifuged again. The two supernatants were pooled and centrifuged at 9250 rpm for 10 minutes at +4° C. The pellet was resuspended in fresh buffer and centrifuged at 11250 rpm for 10 minutes at +4° C. The resulting pellet was stored at −80° C. The enzyme activity was assessed with a radioenzymatic assay using the substrate ^14C-phenylethylamine (PEA) specific for MAO-B. The mitochondrial pellet (500 μg protein) was resuspended in 0.1 M phosphate buffer (pH 7.4). 200 μl of the suspension were added to a 50 μl solution of the test compound or buffer, and incubated for 30 min at 37° C. (preincubation) then the substrate (50 μl) was added. The incubation was carried out for 10 minutes at 37° C. (^14C-PEA, 0.5 μM). The reaction was stopped by adding 0.2 ml of perchloric acid. After centrifugation, the deaminated metabolites were extracted with 3 ml of toluene and the radioactive organic phase containing the neutral and/or acidic metabolites formed as a result of MAO-B activity was measured by liquid scintillation spectrometry at 90% efficiency. The MAO-B activity was expressed as nmoles of substrate transformed/mg protein/min.

[2] = read-out: IC50 depolarized, preconditioning potential ~-70 mV
[3] = read-out: IC50 resting (Kr), preconditioning potential -110 mV

Sequence of MAO-B (P19643 whole entry): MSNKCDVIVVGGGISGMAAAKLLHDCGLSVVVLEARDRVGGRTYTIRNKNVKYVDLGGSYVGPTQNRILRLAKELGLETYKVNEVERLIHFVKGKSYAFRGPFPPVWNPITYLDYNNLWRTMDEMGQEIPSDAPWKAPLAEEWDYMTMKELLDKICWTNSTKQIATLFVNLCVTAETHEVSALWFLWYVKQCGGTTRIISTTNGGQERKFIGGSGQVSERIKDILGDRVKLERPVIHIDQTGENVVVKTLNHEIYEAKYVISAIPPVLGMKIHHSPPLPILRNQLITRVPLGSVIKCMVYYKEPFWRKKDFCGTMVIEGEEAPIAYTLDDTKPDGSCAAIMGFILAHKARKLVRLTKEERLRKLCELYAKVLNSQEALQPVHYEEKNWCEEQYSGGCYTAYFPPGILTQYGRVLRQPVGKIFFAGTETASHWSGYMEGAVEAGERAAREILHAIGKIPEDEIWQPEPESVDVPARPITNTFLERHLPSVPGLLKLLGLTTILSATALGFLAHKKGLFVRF

SMILES | IC50 (L-type calcium channels) [µM] | IC50 (TTXs sodium channels) [nM] | % protection 10 mg/kg p.o. (mice; mice, MES) [%] | also measured
CCCCOc1cccc(CCNCC(=O)N(CCC)CCC)c1 [2-[2-(3-Butoxyphenyl)-ethylamino]-N,N-dipropylacetamide hydrochloride] | 1.1 | 500 |  | 
CCCCOc1cccc(CCNC(C)(C)C(=O)N(C)C)c1 [2-[2-(3-Butoxyphenyl)-ethylamino]-2,N,N-trimethylpropanamide hydrochloride] |  | 700 |  | 
CCCCOc1cccc(CCNCC(=O)N(C)C)c1F [2-[2-(3-Butoxy-2-fluorophenyl)-ethylamino]-N,N-dimethylacetamide] |  |  |  | Ki [1]: 1000 nM; IC50 [1, 2]: 1700 nM; IC50 [1, 3]: 13000 nM
CCCCOc1cccc(CCNCC(=O)N(CCCC)CCCC)c1 [2-[2-(3-Butoxyphenyl)-ethylamino]-N,N-dibutylacetamide hydrochloride] | 1.8 | 1200 |  | 
CCCCOc1cccc(CCNCC(=S)N(C)C)c1 [2-[2-(3-Butoxyphenyl)-ethylamino]-N,N-dimethylthioacetamide hydrochloride] | 7.6 | 1200 |  | 
CCCCCOc1cccc(CCNCC(=O)N(C)C)c1.Cl [2-[2-(3-Pentyloxyphenyl)-ethylamino]-N,N-dimethylacetamide hydrochloride] | 8.3 | 500 | 100 | Ki [1]: 500 nM; IC50 [1, 2]: 700 nM; IC50 [1, 3]: 2900 nM; ED50 (mice): 2.8 mg/kg
CCCCOc1cc(CCNCC(=O)N(C)C)ccc1OC [2-[2-(3-Butoxy-4-methoxyphenyl)-ethylamino]-N,N-dimethylacetamide hydrochloride] |  |  |  | IC50 (MAO-B): > 300 µM
CCCCSc1cccc(CCNCC(=O)N(C)C)c1 [2-[2-(3-Butylthiophenyl)-ethylamino]-N,N-dimethylacetamide hydrochloride] | 7.2 |  |  | 
CCCCOc1cccc(CCNCC(=O)N(CC)CC)c1 [2-[2-(3-Butoxyphenyl)-ethylamino]-N,N-diethylacetamide hydrochloride] | 6.7 | 600 |  | 
CN(C)C(=O)CNCCc1cccc(OCCCC(F)(F)F)c1 [2-{2-[3-(4,4,4-Trifluorobutoxy)phenyl]-ethylamino}-N,N-dimethylacetamide hydrochloride] | 9.3 |  |  | 
CCCCCCOc1cccc(CCNCC(=O)N(C)C)c1.Cl [2-[2-(3-Hexyloxyphenyl)-ethylamino]-N,N-dimethylacetamide hydrochloride] | 4 | 500 | 100 | ED50 (mice; mice, MES, p.o.): 4.6 mg/kg
CCCCCOc1cccc(CCNCC(=O)N(CCC)CCC)c1 [2-[2-(3-Pentyloxyphenyl)-ethylamino]-N,N-dipropylacetamide hydrochloride] | 6.9 | 1100 |  | 
CCCCOc1cc(CCNCC(=O)N(C)C)ccc1C.Cl [2-[2-(3-Butoxy-4-methylphenyl)-ethylamino]-N,N-dimethylacetamide hydrochloride] | 10 | 700 | 40 | 
CCCCOc1cccc(CCNCC(=O)N2CCCC2)c1 [2-[2-(3-Butoxyphenyl)-ethylamino]-1-pyrrolidin-1-yl-ethanone hydrochloride] |  | 2100 |  | 
CCCCOc1cccc(CCNC(C)C(=O)N(C)C)c1.Cl (stereo not shown) [2-[2-(3-Butoxyphenyl)-ethylamino]-N,N-dimethylpropanamide hydrochloride] |  | 1100 | 60 | ED50 (mice; mice, MES, p.o.): 6.5 mg/kg; IC50 (MAO-B): > 300 µM
CCCCOc1cccc(CCNCC(=O)NC)c1.Cl [2-[2-(3-Butoxyphenyl)-ethylamino]-N-methylacetamide hydrochloride] |  |  | 30 | ED50 (mice; mice, MES, p.o.): 12.1 mg/kg; IC50 (MAO-B): 110 µM
CCCCOc1ccc(F)c(CCNCC(=O)N(C)C)c1F.Cl [2-[2-(3-Butoxy-2,6-difluorophenyl)-ethylamino]-N,N-dimethylacetamide hydrochloride] |  | 2600 | 100 | ED50 (mice; mice, MES, p.o.): 2 mg/kg; IC50 (MAO-B): > 300 µM
